Data on 45 compounds can be found in article PMC12512767, “Discovery of new aurone derivatives as submicromolar CK2 inhibitors” (Journal of Enzyme Inhibition and Medicinal Chemistry, 2025).

Where only a bound is given, the exact number is not on record here.

Assay [1] addresses T1, recombinant human protein kinase CK2 alpha subunit (Homo sapiens, UniProt P68400). Briefly: Capillary electrophoresis (CE) CK2 assay. The class given is biochemical. The conditions noted are these: ATP 100 µM, peptide substrate 100 µM; 30 °C, 40 min; triplicate; Hill fit. As to the method:
(§1) The study was conducted using recombinant human protein kinase CK2 alpha subunit, obtained using plasmid pZW6 (Addgene, USA, catalogue number 27086), ATP (Sigma-Aldrich, USA, catalogue number A2383) and peptide substrate RRRDDDSDDD (GenScript, USA, catalogue number RP10318). Tris(hydroxymethyl)aminomethane hydrochloride (Tris-HCl) (Sigma-Aldrich, USA, catalogue number 10812846001), KCl (Sigma-Aldrich, USA, catalogue number P3911) and MgCl2 (Sigma-Aldrich, USA, catalogue number 208337) were used to prepare the reaction buffer. Dimethyl sulfoxide (DMSO) (Sigma-Aldrich, USA, catalogue number 472301) was used as a solvent for the compounds. Luminescent assays were performed using Kinase-Glo® kit (Promega, USA, catalogue number V6711). Aurone derivatives were synthesised following the procedure[20] described earlier starting from the benzo[e]benzofuran-1-one intermediate obtained in a known manner. The structures of tested aurone derivatives are given in the Results section.
(§2) The reaction mixture volume was 50 μl. The reaction buffer contained 2 mM Tris HCl, 5 mM KCl and 1 mM MgCl2, pH 7.5. The concentration of CK2 alpha subunit was 2 mg/l per sample in control and experimental samples. The reaction mixtures contained 0.5 μl of inhibitor solution in DMSO per sample (final inhibitor concentrations were different in luminescent and CE assays) or 0.5 μl of pure DMSO in control and calibration samples. The samples were incubated at 30 °C for 40 min.
The initial concentrations of ATP and peptide substrate were 100 µM. The reaction was stopped by adding 100 μl of 20 mM EDTA disodium salt. All IC50 studies were performed in triplicate. Mean conversion values for each concentration were used for construction of the conversion-versus-concentration curves and IC50 determination.
The conversion was determined by the formula: C=100∗P/P+N
C is the conversion in percent, P is the peak area of the phosphorylated product, and N is the peak area of the substrate.
Inhibition was calculated using the formula: I=100∗ Co−Ce/Co
I – inhibition in percent, Со – conversion in control sample, Се – conversion in experimental sample.
For the tested compounds, inhibition curves were plotted as a function of concentration and fitted using the Hill equation: y=x^n/k^n+x^n y – inhibition in percent, x – inhibitor concentration, k – IC50 value, n – Hill coefficient.
Inhibition curves were built using at least four data points, with additional concentrations tested for some compounds to refine the curve’s shape. The IC50 value was determined from the fitted curve as the concentration producing 50% inhibition.
All electrophoretic separations were performed with a capillary electrophoresis system Сapel-105M (Lumex). Fused silica (Lumex) of a total length of 75 cm (effective length 65 cm) with inner diameter 50 μm was used. Before use, fused silica was washed for 5 min with 0.1 M HCl solution, then 5 min with distilled water, then 5 min with 0.1 M NaOH solution, again for 5 min with distilled water and for 5 min with background electrolyte (BGE).
A 150 mM orthophosphoric acid (pH 1.2) was used as BGE. Before electrophoretic separation, 350 μl of deionised water was added to the samples. Samples were introduced hydrodynamically at 900 mbar*s. The electrophoresis voltage was 25 kV. Electrophoretic separation was carried out in positive polarity. Detection conducted at a wavelength of 192 nm. Instrument control, data collection and integration were performed with Elforun (Lumex) software.

The target of assay [2] is T1, recombinant human protein kinase CK2 alpha subunit. Briefly: Luminescent (Kinase-Glo) CK2 screening assay. The class given is biochemical. The conditions noted are these: inhibitor 1 μM; ATP 10 µM, peptide substrate RRRDDDSDDD 200 µM; 30 °C, 40 min; triplicate; LI = luciferase inhibition (luminescence lower than control). As to the method: as §1, §2
The luminescent assay measured sample luminescence following the addition of the Kinase-Glo luciferase mixture, with the signal reflecting the remaining ATP content. The final ATP concentration indicates the extent of peptide phosphorylation: higher ATP levels correspond to lower peptide phosphorylation. This method was considered as a rapid and straightforward approach for screening a large number of compounds without quantitatively determining their activity.
ATP and peptide substrate were initially present at concentrations of 10 µM and 200 µM, respectively. Calibration samples, which lacked the enzyme, represented the initial ATP concentration. The inhibitor concentration in experimental samples was 1 µM. Measurements were performed using a LuMate 4400 microplate reader (Awareness Technology, USA). Luminescence was recorded after adding 50 µL of the Kinase-Glo luminescent mixture to each sample. In order to simplify the screening process, no signal–concentration calibration curve was constructed for precise ATP quantification. Instead, luminescence values of experimental and control samples were compared directly with those of enzyme-free calibration samples, which reflected the initial ATP level. The percentage of inhibition was determined by the formula: I=100∗(Me−Mc)/(Mo−Mc)
I is the inhibition in percent, Me, Mc and Mo are the luminescence of the experimental, calibration and control samples, respectively. The experiments were performed in triplicate, after which the obtained values were averaged.
This effect may result from the inhibition of luciferase activity. The decrease in luminescence reflects not increased ATP consumption by CK2 during peptide phosphorylation, but rather reduced oxyluciferin formation – the luminescent product – caused by luciferase inhibition by the test compound. The manufacturer of the Kinase-Glo kit, as well as practical studies of protein kinases claim the possibility of this effect[23]^,[24]. […] Furthermore, some compounds with potential luciferase inhibitory activity could have produced false-negative results.
This deviation was most pronounced in samples with low absolute luminescence values (and consequently, low inhibition).
On the technique in general: In Kinase-Glo more light means more ATP remaining.

T1 sequence (P68400 whole entry): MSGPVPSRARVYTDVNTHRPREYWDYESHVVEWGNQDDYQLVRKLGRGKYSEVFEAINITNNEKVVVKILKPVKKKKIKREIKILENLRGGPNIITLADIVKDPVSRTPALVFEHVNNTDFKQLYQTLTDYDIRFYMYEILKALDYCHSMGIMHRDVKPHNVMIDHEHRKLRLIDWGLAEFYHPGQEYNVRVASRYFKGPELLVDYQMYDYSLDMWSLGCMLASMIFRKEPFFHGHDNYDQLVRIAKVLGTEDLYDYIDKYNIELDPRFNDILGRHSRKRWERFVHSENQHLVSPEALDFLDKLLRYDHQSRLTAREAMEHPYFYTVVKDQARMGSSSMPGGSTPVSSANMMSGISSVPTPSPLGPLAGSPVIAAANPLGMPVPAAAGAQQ

As usually defined, the IC50 is the midpoint of a concentration-inhibition curve. For `O=C1C(=Cc2ccc(O)c([N+](=O)[O-])c2)Oc2c1ccc1ccccc21` [BFO22], in assay [1], the IC50 amounted to 680 nM. Besides, the “I (%) (inhibition)” value in assay [2] is on record as 80 ± 13%.
Take `COc1cc(C=C2Oc3ccc4ccccc4c3C2=O)ccc1O` [BFO23]: the half-inhibitory concentration (IC50) in assay [1] amounted to 130 nM. Further, in assay [2], the “I (%) (inhibition)” value is given as 85 ± 14%.
The corresponding values for `O=C1C(=Cc2ccc(O)c(F)c2)Oc2ccc3ccccc3c21` [BFO24] are 220 nM and 95 ± 23%.
Take `O=C1C(=Cc2ccc(O)c(Cl)c2)Oc2ccc3ccccc3c21` [BFO25]: the IC50 in assay [1] worked out at 3 nM. Further, the “I (%) (inhibition)” value in assay [2] was 88 ± 11%.
As for `COc1cc(C=C2Oc3ccc4ccccc4c3C2=O)cc([N+](=O)[O-])c1O` [BFO26], the IC50 in assay [1] was found to be 130 nM. For the same compound, the “I (%) (inhibition)” value in assay [2] came to 90 ± 7%.
For the compound `O=C1C(=Cc2ccc(O)c(Br)c2)Oc2ccc3ccccc3c21` [BFO27], the IC50 in assay [1] is 13 nM. The “I (%) (inhibition)” value in assay [2] turned out to be 86 ± 1%.
Take `O=C1/C(=C/c2ccc(O)c(F)c2)Oc2ccccc21` [Compound 1]: in assay [2], the “I (%) (inhibition)” value was 36 ± 12%.
The same measure, in the same setting: to `COc1cccc(C=C2Oc3ccccc3C2=O)c1O` [Compound 2] belongs under 25%; to `O=C1/C(=C/c2ccccc2O)Oc2cc(O)ccc21` [Compound 3], under 25%; to `O=C(O)c1ccc(C=C2Oc3cc(O)ccc3C2=O)cc1` [Compound 4], 41 ± 9%.
Still for that read-out and setting: to `COc1cc(C=C2Oc3cc(O)ccc3C2=O)cc(Cl)c1O` [Compound 5] belongs 48 ± 21%.
Still for that read-out and setting: to `CCOc1cc(/C=C2\Oc3cc(O)ccc3C2=O)ccc1O` [Compound 6] belongs under 25%.
As to `COc1ccc2c(c1)OC(=Cc1ccccc1O)C2=O` [Compound 7], the “I (%) (inhibition)” value in assay [2] was under 25%.
As for `COc1ccc2c(c1)OC(=Cc1cccc(O)c1)C2=O` [Compound 8], in assay [2], the “I (%) (inhibition)” value was under 25%.
Same read-out and setting: to `COc1ccc2c(c1)OC(=Cc1ccc(O)cc1)C2=O` [Compound 9] belongs under 25%.
As to `COc1ccc2c(c1)OC(=Cc1ccc(O)c(OC)c1)C2=O` [Compound 10], the “I (%) (inhibition)” value in assay [2] was determined as 27 ± 19%.
On to `O=C(O)COc1ccc2c(c1)OC(=Cc1cccc(F)c1)C2=O` [Compound 11], for which the “I (%) (inhibition)” value in assay [2] is under 25%.
Turning to `O=C(O)COc1ccc2c(c1)OC(=Cc1ccc(C(=O)O)cc1)C2=O` [Compound 12], the “I (%) (inhibition)” value in assay [2] is under 25%.
Turning to `O=C1C(=Cc2ccccc2O)Oc2ccc(O)cc21` [Compound 13], in assay [2], the “I (%) (inhibition)” value is under 25%.
Regarding `Cc1cc(C=C2Oc3ccc(Br)cc3C2=O)ccc1O` [Compound 14], the “I (%) (inhibition)” value in assay [2] was under 25%.
In the case of `O=C1C(=Cc2ccc(O)c(F)c2)Oc2ccc(Br)cc21` [Compound 15], in assay [2], the “I (%) (inhibition)” value is given as under 25%.
On the same count and under the same terms, to `O=C1C(=Cc2ccc(O)c(F)c2)Oc2ccc(Cl)cc21` [Compound 16] belongs under 25%; to `Cc1cc(C=C2Oc3ccc(Cl)cc3C2=O)ccc1O` [Compound 17], under 25%; to `Cc1cc(C=C2Oc3c(Cl)ccc(Cl)c3C2=O)ccc1O` [Compound 18], under 25%.
`O=C1C(=Cc2ccc(O)c(F)c2)Oc2c(Cl)ccc(Cl)c21` [Compound 19]: the “I (%) (inhibition)” value in assay [2] turned out to be 61 ± 15%.
The same measure, in the same setting: to `Cc1cc(/C=C2\Oc3cc(C)c(Cl)c(C)c3C2=O)ccc1O` [Compound 20] belongs under 25%.
The same measure, in the same setting: then `Cc1cc2c(c(C)c1Cl)C(=O)C(=Cc1ccc(O)c(F)c1)O2` [Compound 21], with under 25%.
Same read-out and setting: then `O=C(O)c1ccc(C=C2Oc3c(ccc4ccccc34)C2=O)cc1` [Compound 22], with under 25%; and `O=C1C(=Cc2ccc(O)cc2)Oc2c1ccc1ccccc21` [Compound 23], with under 25%.
`COc1cc(C=C2Oc3c(ccc4ccccc34)C2=O)ccc1O` [Compound 28]: the “I (%) (inhibition)” value in assay [2] is reported as under 25%.
On the same count and under the same terms, to `O=C(O)c1cc(C=C2Oc3c(ccc4ccccc34)C2=O)ccc1O` [Compound 31] belongs under 25%.
In the case of `O=C1C(=Cc2ccc(O)c(Cl)c2)Oc2c1ccc1ccccc21` [Compound 32], the “I (%) (inhibition)” value in assay [2] amounted to 68 ± 15%.
As to `O=C1C(=Cc2cc(Cl)c(O)c(Cl)c2)Oc2c1ccc1ccccc21` [Compound 33], the “I (%) (inhibition)” value in assay [2] was under 25%.
As to `O=C1C(=Cc2ccc(O)c(Br)c2)Oc2c1ccc1ccccc21` [Compound 34], in assay [2], the “I (%) (inhibition)” value was under 25%.
With `O=C1C(=Cc2cc(Br)c(O)c(Br)c2)Oc2c1ccc1ccccc21` [Compound 35], the “I (%) (inhibition)” value in assay [2] was 39 ± 14%.
Take `O=C1C(=Cc2ccc(O)c(F)c2)Oc2c1ccc1ccccc21` [Compound 36]: the “I (%) (inhibition)” value in assay [2] is on record as under 25%.
Regarding `O=C1C(=Cc2ccc(O)cc2)Oc2ccc3ccccc3c21` [Compound 38], in assay [2], the “I (%) (inhibition)” value is under 25%.
For the compound `O=C(O)c1ccc(C=C2Oc3ccc4ccccc4c3C2=O)cc1` [Compound 39], the “I (%) (inhibition)” value in assay [2] turned out to be 69 ± 24%.
On to `O=C1C(=Cc2cccc(O)c2)Oc2ccc3ccccc3c21` [Compound 40], for which, in assay [2], the “I (%) (inhibition)” value is reported as under 25%.
With `O=C1C(=Cc2ccc(O)c(O)c2)Oc2ccc3ccccc3c21` [Compound 41], the “I (%) (inhibition)” value in assay [2] is recorded as under 25%.
Turning to `Cc1cc(C=C2Oc3ccc4ccccc4c3C2=O)ccc1O` [Compound 45], in assay [2], the “I (%) (inhibition)” value is reported as under 25%.
In the case of `O=C(O)c1cc(C=C2Oc3ccc4ccccc4c3C2=O)ccc1O` [Compound 48], in assay [2], the “I (%) (inhibition)” value is on record as 32 ± 24%.
For `O=C1C(=Cc2cc(Cl)c(O)c(Cl)c2)Oc2ccc3ccccc3c21` [Compound 51], the “I (%) (inhibition)” value in assay [2] came out at 78 ± 22%.
Regarding `COc1cc(C=C2Oc3ccc4ccccc4c3C2=O)cc(Cl)c1O` [Compound 52], in assay [2], the “I (%) (inhibition)” value turned out to be 46 ± 15%.
In the case of `O=C1/C(=C/c2cc(Br)c(O)c(Br)c2)Oc2ccc3ccccc3c21` [Compound 54], in assay [2], the “I (%) (inhibition)” value was found to be 69 ± 1%.
